Values quoted from earlier work in patent US12396980B2, “Melatonin for preventing and treating radiation cystitis” (RepoCeuticals A/S, priority 2015, dated 2025).
Values belong to the compound of their own block, whether it stands above or below them.

Columns and labels:
radiation cystitis = conditions: human patients
lymphocytes = conditions: prior oral dosage; human beings
rat urinary bladder = conditions: intraperitoneal

SMILES: C[S+](C)[O-] [DMSO, Dimethyl sulfoxide]
- therapeutic effect on radiation cystitis (radiation cystitis): some therapeutic effect

- water solubility: almost water-insoluble
SMILES: COC1=C(OC)C(=O)C(C/C=C(\C)CC/C=C(\C)CC/C=C(\C)CC/C=C(\C)CC/C=C(\C)CC/C=C(\C)CC/C=C(\C)CC/C=C(\C)CC/C=C(\C)CCC=C(C)C)=C(C)C1=O [coenzyme Q10]

SMILES: COc1ccc2[nH]cc(CCNC(C)=O)c2c1 [melatonin, /V-acetyl-5-methoxytryptamine]
- protective effect on the damage caused by subsequent ex vivo radiation exposure of lymphocytes (lymphocytes): protective effect
- protective effect against radiation-induced oxidative changes to the rat urinary bladder (rat urinary bladder): protective effect
